Assay results reported in US12261337B2, “Aqueous electrolyte, redox flow battery and use thereof” (priority 2018, dated 2025).

Assays:
[1] = cited from earlier work
[2] = oxidized using Oxone; storage at 60° C., also in the absence of air; after three days

Compound | solubility in organic solvents ([1]; organic solvents) | solubility in water ([1]; water) | stability of the charged molecule / charged electrolytes after storage [2]
C1=C[CH]([Fe][CH]2C=CC=C2)C=C1 [Ferrocene, bis(η^5-cyclopentadienyl)iron(II)] | readily soluble | sparingly soluble | –
ferrocene-bis-sulfonic acid [Example 1] | – | – | irreversible precipitate
